{
  "source": "patent US20240246956A1",
  "about": "“CLASS IIA HISTONE DEACETYLASE (HDAC) DEGRADER LIGANDS AND METHODS OF USE THEREOF” (DANA-FARBER CANCER INSTITUTE, INC., priority 2021, published 2024)",
  "tested_on": "class IIa HDACs",
  "assay": "Global quantitative proteomics, change in protein abundance in Kelly cells",
  "type": "cell-based, human",
  "conditions": "1 μM, 5 hours, vs DMSO, moderated t-test, FIG. 4B-4C",
  "description": "Cells were washed once with phosphate-buffered saline (PBS), harvested with CellstripperTM (Corning®), washed two additional times with PBS and snap frozen in liquid nitrogen. […] Proteins were precipitated using methanol/chloroform in Donovan et al., Elife 7:e38430 (2018). The precipitated protein was resuspended in 4 M Urea, 50 mM HEPES pH 7.4, followed by dilution to 1 M urea with the addition of 200 mM EPPS, pH 8. Proteins were first digested with LysC (1:50: enzyme:protein) for 12 hours at room temperature. The LysC digestion was diluted to 0.5 M Urea with 200 mM EPPS pH 8 followed by digestion with trypsin (1:50: enzyme:protein) for 6 hours at 37° C. Tandem mass tag (TMT) reagents (Thermo Fisher Scientific) were dissolved in anhydrous acetonitrile (ACN) according to manufacturer's instructions. Anhydrous ACN was added to each peptide sample to a final concentration of 30% v/v, and labeling was induced with the addition of TMT reagent to each sample at a ratio of 1:4 peptide:TMT label. The 11-plex labeling reactions were performed for 1.5 hours at room temperature and the reaction quenched by the addition of hydroxylamine to a final concentration of 0.3% for 15 minutes at room temperature. The sample channels were combined at a 1:1 ratio, desalted using C18 solid phase extraction cartridges (Waters®) and analyzed by LC-MS for channel ratio comparison. Samples were then combined using the adjusted volumes determined in the channel ratio analysis and dried down in a speed vacuum. The combined sample was then resuspended in 1% formic acid, and acidified (pH 2-3) before being subjected to desalting with C18 SPE (Sep-Pak®-, Waters®). […] Proteome Discoverer 2.2 (Thermo Fisher Scientific) was used for .RAW file processing and controlling peptide and protein level false discovery rates, assembling proteins from peptides, and protein quantification from peptides. […] TMT reporter ion intensities were measured using a 0.003 Da window around the theoretical m/z for each reporter ion in the MS3 scan. […]",
  "data": [
    {"smiles": "CCN(CCNc1cccc2c1C(=O)N(C1CCC(=O)NC1=O)C2=O)C[C@@H](C)NC(=O)c1ccc(-c2noc(C(F)(F)F)n2)cc1", "note": "(stereo partly drawn) [Compound 16, N-((2R)-1-((2-((2-(2,6-dioxopiperidin-3-yl)-1,3-dioxoisoindolin-4-yl)amino)ethyl)(ethyl)amino)propan-2-yl)-4-(5-(trifluoromethyl)-1,2,4-oxadiazol-3-yl)benzamide]", "values": [
      {"measurement": "class IIa HDAC levels (relative protein abundance)", "result": "significant reduction"}
    ]}
  ]
}
